According to paper PMC9449670, “Two types of peptides derived from the neurotoxin GsMTx4 inhibit a mechanosensitive potassium channel by modifying the mechanogate” (The Journal of Biological Chemistry, 2022):
Bridges are numbered along the chain shown (N, C = ends). Where no end group is shown, it is not given here.

Legend:
[1] = target: T1, stretch-activated BK channel (SAKcaC, SAKca-WT) (Gallus gallus, UniProt Q8AYS8); experiment: Single-channel excised inside-out patch clamp of native SAKcaC from ventricular myocytes, peptide backfilled in the pipette; format: cell-based, chick; conditions: for slope factor K^−1 of Po–V relationship (Boltzmann fit): control (no peptide) 25.1 ±1.16; for slope factor K^−1 of Po–V relationship (Boltzmann fit) / V1/2 of Po–V relationship (Boltzmann fit) / channel open probability Po with 50 nM peptide / channel open probability Po with 100 nM peptide / channel open probability Po with 0 nM peptide (control of the dose series) / Hill cofactor of dose–response curve: ventricular myocytes; for V1/2 of Po–V relationship (Boltzmann fit): control (no peptide) −91.5 ± 1.36 mV, n = 6 to 9; for channel open probability Po with 50 nM peptide / channel open probability Po with 100 nM peptide: 25 min following backfilling; for channel open probability Po with 50 nM peptide / channel open probability Po with 100 nM peptide / channel open probability Po with 0 nM peptide (control of the dose series): [Ca2+]i 1 mM, single sample patch
T1 construct: Native SAKcaCs were recorded from ventricular myocytes; endogenous in cells; host or cells: isolated chick ventricular myocytes
Protocol: Native SAKcaCs were recorded from ventricular myocytes, which were isolated from chick hearts as described previously ([12], [13], [37]).
(§1) Single-channel currents for SAKcaC were recorded under the standard excised inside–out patch configuration. Currents were amplified using an A&M amplifier (Model 2400) or an EPC10 patch-clamp amplifier (HEKA Elektronik). Data were filtered at 10 kHz. The standard pipette solution facing the extracellular surface of the patch contained (in millimolar): 145 potassium gluconate, 1 EGTA, 10 Hepes, and 5 glucose, pH 7.4 was adjusted with NaOH. The bath solution facing the cytoplasmic surface of the patch membrane was the same except the [Ca^2+]i concentration used was 1 mM ([13], [38]).
(§2) In brief, the normal pipette solution was first filled in the tips of the electrodes, and then the same solution containing the peptide was backfilled. […] All experiments were performed with standard inside–out patch configuration at room temperature (22–25 °C).
(§3) Single-channel conductances of SAKcaC and the STREX-del mutant channel were determined by the slope of current–voltage (I–V) curves, where I–V data could be well fitted with a linear function ([12], [54]). Amplitude histograms were measured in inside–out patches mostly with one to three channels. Histograms were fitted with a Gaussian function using pClampfit software (Molecular Devices Corp.). In the case when only one channel was contained in patches, channel open probability Po (%) was determined simply by driving the total open duration of the sum of the open and closed times in patches as described previously ([51], [55]). When multiple channels were presented in the patch, Po was determined using the area under each peak (aj) at each current level (j) in the histogram along with the number of channels (N):(1) Po=∑j=0n(j∗aj)/n×∑j=0Naj Where N is the channel number in each patch, which was defined from the maximum level observed at a relatively higher voltage of +80 mV under 1 mM [Ca^2+]i.

[2] = test system: STREX-del mutant channel (SAKcaC with STREX-exon removed); conditions: earlier work of the authors; cited from earlier work
Source text: We next examined whether the two types of peptides function on the mechano-insensitive mutant channel. We have previously identified a mechano-insensitive-mutant (STREX-del) channel, of which the mechanosensor domain (STREX-exon) in SAKcaC was removed ([37], [38]). […] To investigate whether the synthetic short peptides act similarly to GsMTx4, we performed the same experiments to examine the effects of the two types of sh ...

[3] = test system: STREX-del mutant channel (SAKcaC with STREX-exon removed); experiment: Single-channel inside-out patch clamp of mechano-insensitive STREX-del mutant channel expressed in CHO cells; format: cell-based, chick
Source text: (§4) The SA BK (SAKca) channel (SAKcaC) gene was cloned from the complementary DNA (cDNA) library (GenBank accession number: AB072618) from chick embryonic hearts ([13]); this was further subcloned into mammalian expression vectors (pcDNA 3.1). SAKca STREX (stress axis–regulated exon) deletion mutation (STREX-Del) was verified by sequencing as published previously ([35], [51]). Cloned SAKcaC (SAKca-WT) or STREX-Del mutant cDNAs were transiently transfected in the CHO-K1 cells using the Lipofectamine 2000 Transfection Reagent (Thermo Fisher Scientific) according to the manufacturer’s protocol. To monitor the successfully transfected cells, pEGFP (Clontech Laboratories) was coexpressed with the SAKca-WT or STREX-Del channel cDNA (5:1, w/w). The transfected cells grown on the coverslip were used for patch-clamp recordings. No endogenous BK channel activity was detected in the untransfected CHO-K1 cells. Currents were normally recorded within 1 week after cDNA transfection ([13], [37], [38]).
Single-channel currents for SAKcaC were recorded under the standard excised inside–out patch configuration. […]
as §3, with “Histograms were fitted with a Gaussian function using pClampfit software (Molecular Devices Corp.).” left out

[4] = target: T2, stretch-activated BK channel (SAKcaC) (Gallus gallus, UniProt Q8AYS8); experiment: Single-channel excised inside-out patch clamp of SAKcaC expressed in CHO-K1 cells, peptide backfilled in the pipette (extracellular side); format: cell-based, chick; conditions: Vm −80 mV, [Ca2+]i 1 mM
T2 construct: expressed in transfected cells; host or cells: CHO-K1, transient transfection of pcDNA 3.1 with Lipofectamine 2000; pEGFP co-expressed as a separate marker
Source text: as §4, §1, §2
as §3, with “Histograms were fitted with a Gaussian function using pClampfit software (Molecular Devices Corp.).” left out

[5] = test system: BK (mSlo1) channel; experiment: Macroscopic currents of regular BK (mSlo1) channel in excised inside-out patches from Xenopus laevis oocytes; format: cell-based, mouse; conditions: 10 μM peptide backfilled, 25 min, [Ca2+]i 100 μM, n = 4-6
Protocol: Macroscopic currents for regular BK (mSlo1) channels were recorded from Xenopus laevis oocytes by using standard excised inside–out patches. mSlo1 cDNA was a gift from the laboratory of Dr Christopher Lingle (Washington University), of which the vector pXMX was designed to promote […] expression ([12], [36], [52]). pClamp (Molecular Devices) was used to drive stimulus protocols and digitize currents as described previously ([51], [53]). The standard pipette (extracellular) solution contains (in millimolar): 140 KMES (methanesulfonate), 20 KOH, 10 Hepes, 2 MgCl2, and pH 7.0. The internal solution contains (in millimolar) 140 KMES, 20 KOH, 10 Hepes, 5 EGTA, and pH 7.0. The free intracellular [Ca^2+]i solution was buffered as described previously ([36], [52]).
as §2

T1 sequence (Q8AYS8 1-1195 isoform Q8AYS8-3): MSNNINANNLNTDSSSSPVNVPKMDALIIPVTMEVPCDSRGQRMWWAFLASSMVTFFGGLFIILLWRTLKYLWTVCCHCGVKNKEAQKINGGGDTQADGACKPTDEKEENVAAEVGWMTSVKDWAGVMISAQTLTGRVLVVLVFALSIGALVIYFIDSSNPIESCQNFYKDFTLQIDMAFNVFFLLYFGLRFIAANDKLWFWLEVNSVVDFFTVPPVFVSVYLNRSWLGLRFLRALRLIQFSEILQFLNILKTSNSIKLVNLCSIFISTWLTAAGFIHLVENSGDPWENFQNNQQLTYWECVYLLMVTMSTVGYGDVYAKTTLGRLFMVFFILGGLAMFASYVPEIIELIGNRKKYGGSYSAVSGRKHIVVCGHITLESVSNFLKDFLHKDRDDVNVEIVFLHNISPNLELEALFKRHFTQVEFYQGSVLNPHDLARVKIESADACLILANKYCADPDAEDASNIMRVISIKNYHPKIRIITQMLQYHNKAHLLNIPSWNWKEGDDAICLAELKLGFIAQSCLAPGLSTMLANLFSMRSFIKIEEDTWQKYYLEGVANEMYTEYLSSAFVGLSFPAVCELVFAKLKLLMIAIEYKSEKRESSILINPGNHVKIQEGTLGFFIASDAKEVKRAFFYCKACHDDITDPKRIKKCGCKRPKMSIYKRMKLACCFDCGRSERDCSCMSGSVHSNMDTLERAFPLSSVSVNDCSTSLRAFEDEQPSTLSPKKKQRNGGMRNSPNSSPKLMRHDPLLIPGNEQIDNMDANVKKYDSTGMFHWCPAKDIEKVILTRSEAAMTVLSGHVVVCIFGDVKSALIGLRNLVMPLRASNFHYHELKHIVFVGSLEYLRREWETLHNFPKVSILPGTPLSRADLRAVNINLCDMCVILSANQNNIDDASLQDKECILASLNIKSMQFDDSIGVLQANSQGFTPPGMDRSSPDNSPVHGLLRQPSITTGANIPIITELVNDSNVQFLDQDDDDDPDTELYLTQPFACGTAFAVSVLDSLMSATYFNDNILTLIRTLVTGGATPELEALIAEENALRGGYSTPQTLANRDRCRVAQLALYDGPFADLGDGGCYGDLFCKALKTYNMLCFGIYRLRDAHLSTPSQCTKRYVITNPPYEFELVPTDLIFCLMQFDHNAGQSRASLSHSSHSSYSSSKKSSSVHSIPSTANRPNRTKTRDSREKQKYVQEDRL
T2 sequence (Q8AYS8 1-1195 isoform Q8AYS8-3): as above

Substance | slope factor K^−1 of Po–V relationship (Boltzmann fit) ([1]; 50 nM peptide) | V1/2 of Po–V relationship (Boltzmann fit) ([1]; 50 nM peptide) [mV] | channel open probability Po with 50 nM peptide ([1]; Vm −50 mV) [%] | channel open probability Po with 100 nM peptide ([1]; Vm −50 mV) [%] | channel open probability Po with 0 nM peptide (control of the dose series) ([1]; Vm −50 mV) [%] | Hill cofactor of dose–response curve ([1]; Vm −50 mV) | effect on STREX-del channel, in words [2] | effect on STREX-del mutant channel, in words ([3]; 10 μM peptide backfilled, −60 mV (Pept 02 also +30 mV), up to 25–30 min) | V1/2 of Po–V relationship of STREX-del (Boltzmann fit) ([3]; 10 μM peptide, Po 25 min following backfilling, control (no peptide) −9.2 ± 2.3 mV, n = 4 to 9) [mV] | slope factor K^−1 of Po–V relationship of STREX-del ([3]; 10 μM peptide, control (no peptide) 23.3 ± 2.8) | inhibition of SAKcaC Po at +30 mV ([1]; 50 nM peptide, Vm +30 mV) [%] | inhibition of SAKcaC Po at −50 mV ([1]; 50 nM peptide, Vm −50 mV) [%] | inhibition of SAKcaC at depolarized condition, in words ([1]; 10 μM peptide, Vm +30 mV) | inhibitory effect on SAKcaC, in words ([4]; 5 μM peptide backfilled) | averaged diffusion/inhibitory rate (τ), single-exponential fit of Po time course ([4]; 5 μM peptide, mean ± SEM, at least four experiments, SEM) [min] | channel open probability Po at 16 min following backfilling ([4]; 5 μM peptide, single sample patch) [%] | channel open probability Po before peptide reaches the membrane (0 peptide, 2 min after backfilling) ([4]; baseline of the same patch, 5 μM peptide backfilled, 22–25 °C, single sample patch) [%] | effect on regular BK (mSlo1) channel, in words [5]
GsMTx4 (GCLEFWWKCNPNDDKCCRPKLKCSKLFKLCNFSF; disulfide (positions not given here); ends not checked; UniProt Q7YT39 47-80, looked up) [reference compound] | 24.5 ± 1.63 | −47.2 ± 0.97 | 47.1 | 13.8 | 73.6 | 1.6 ± 0.47 | without effect | – | – | – | – | – | – | – | – | – | – | –
WKCNPNDDKC (disulfide 3-10 (inferred)) [Pept 02, 10-residue type II peptide derived from loop2 of GsMTx4] | 22.9 ± 1.11 | −23.7 ± 1.06 | 22.1 | 6.8 | 72.5 | 1.8 ± 0.52 | – | not significantly altered | −5.7 ± 2.6 | 22.5 ± 2.1 | ~10.3 | ~71.3 | completely inhibited | enhanced inhibition (%) | 2.89 ± 0.16 | 3.6 | 42.9 | failed to inhibit
